Like-named read-outs stand apart in the source and are kept apart here.
Tests used:
HDAC6 human recombinant = target: T1, HDAC6 human recombinant (Homo sapiens, UniProt Q9UBN7); experiment: HDAC enzyme activity inhibition (in vitro), HDAC6 assay; assay type: biochemical
T1 construct: purchased Calbiochem 382180
T1 sequence (Q9UBN7 1-1215): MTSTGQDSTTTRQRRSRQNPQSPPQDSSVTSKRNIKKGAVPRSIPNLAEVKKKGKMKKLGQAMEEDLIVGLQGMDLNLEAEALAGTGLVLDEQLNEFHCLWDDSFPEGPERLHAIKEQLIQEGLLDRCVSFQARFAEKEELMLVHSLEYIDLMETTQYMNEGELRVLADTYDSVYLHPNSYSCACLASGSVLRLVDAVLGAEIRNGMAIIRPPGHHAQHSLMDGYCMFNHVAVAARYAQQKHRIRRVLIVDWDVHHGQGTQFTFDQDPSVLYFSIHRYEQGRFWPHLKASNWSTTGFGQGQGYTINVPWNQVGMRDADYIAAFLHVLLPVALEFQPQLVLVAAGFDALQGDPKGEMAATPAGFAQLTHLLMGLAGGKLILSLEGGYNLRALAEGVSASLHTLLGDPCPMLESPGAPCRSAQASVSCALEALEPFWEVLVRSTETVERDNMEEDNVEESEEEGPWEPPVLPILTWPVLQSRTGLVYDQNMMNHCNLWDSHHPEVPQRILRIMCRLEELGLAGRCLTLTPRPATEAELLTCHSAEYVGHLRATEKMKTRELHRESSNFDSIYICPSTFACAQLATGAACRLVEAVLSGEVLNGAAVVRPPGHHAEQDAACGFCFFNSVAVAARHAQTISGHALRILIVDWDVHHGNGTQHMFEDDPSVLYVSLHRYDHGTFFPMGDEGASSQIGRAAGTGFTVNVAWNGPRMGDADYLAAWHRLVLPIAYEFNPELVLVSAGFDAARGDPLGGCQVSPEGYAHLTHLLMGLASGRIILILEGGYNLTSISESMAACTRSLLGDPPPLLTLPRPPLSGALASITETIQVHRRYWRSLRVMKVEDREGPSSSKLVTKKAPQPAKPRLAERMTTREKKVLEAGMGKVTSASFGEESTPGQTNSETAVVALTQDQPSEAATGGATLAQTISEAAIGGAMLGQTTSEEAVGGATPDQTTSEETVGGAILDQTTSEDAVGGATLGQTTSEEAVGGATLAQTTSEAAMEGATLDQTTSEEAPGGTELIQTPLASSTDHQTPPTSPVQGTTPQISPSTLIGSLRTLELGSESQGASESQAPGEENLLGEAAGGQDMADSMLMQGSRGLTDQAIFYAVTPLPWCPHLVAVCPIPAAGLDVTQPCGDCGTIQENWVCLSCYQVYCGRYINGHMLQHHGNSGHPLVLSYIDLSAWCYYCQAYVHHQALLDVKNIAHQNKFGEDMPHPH
How it was run: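 Fluorescence (Ex 390, Em 460) read after a 37° C, 60 min enzyme reaction and a further 30 min developer step at 37° C. Uses recombinant human HDAC6; HDAC1 arm dosed at 100, 1000, 10000 nM.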

HDAC1 = target: T2, HDAC1 (Homo sapiens, UniProt Q13547); experiment: HDAC enzyme activity inhibition (in vitro), HDAC1 Fluorimetric Drug Discovery Assay Kit; assay type: biochemical
T2 construct: purchased Enzolifesciences BML-AK511
T2 sequence (Q13547 whole entry): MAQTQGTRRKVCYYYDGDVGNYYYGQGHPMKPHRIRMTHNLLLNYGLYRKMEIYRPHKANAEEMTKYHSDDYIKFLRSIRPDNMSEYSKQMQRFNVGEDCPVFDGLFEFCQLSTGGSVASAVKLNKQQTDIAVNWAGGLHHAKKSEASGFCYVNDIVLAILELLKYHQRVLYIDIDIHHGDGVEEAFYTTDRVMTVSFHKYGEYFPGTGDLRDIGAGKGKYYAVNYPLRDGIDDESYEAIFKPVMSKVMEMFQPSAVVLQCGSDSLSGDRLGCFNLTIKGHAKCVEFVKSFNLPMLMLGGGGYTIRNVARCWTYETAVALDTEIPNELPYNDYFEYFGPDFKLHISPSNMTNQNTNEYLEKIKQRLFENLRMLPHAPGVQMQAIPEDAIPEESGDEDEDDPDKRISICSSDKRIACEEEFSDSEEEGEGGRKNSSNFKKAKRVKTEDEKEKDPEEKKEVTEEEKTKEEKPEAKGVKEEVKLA
How it was run: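 Each sample reacted with enzyme for 60 min at 37° C before a 30-min developer step at the same temperature. HDAC1 doses spanned 100 to 10000 nM. Fluorescent signal was read at Ex 390/Em 460.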

[1] = samples at 0.1, 1, 10, 100 and 1000 nM, 37° C. 60 minutes, fluorescence Ex 390, Em 460, read-out: HDAC6 IC50
[2] = samples at 100, 1000 and 10000 nM, 37° C. 60 minutes, fluorescence Ex 390, Em 460, read-out: HDAC1 IC50

SMILES | IC50 (HDAC6 human recombinant) [nM] | IC50 (HDAC1) [nM] | IC50 (HDAC6 human recombinant; [1]) [nM] | IC50 (HDAC1; [2]) [nM]
O=c1n(Cc2ccc(-c3nnc(C(F)F)o3)cn2)c2cc(Cl)ccc2n1C1CCN(CC(F)(F)C(F)(F)C(F)(F)F)CC1 [Compound 232, 5-chloro-3-((5-(5-(difluoromethyl)-1,3,4-oxadiazole-2-yl)pyridine-2-yl)methyl)-1-(1-(2,2,3,3,4,4,4-heptafluorobutyl)piperidine-4-yl)-1,3-dihydro-2H-benzo[d]imidazole-2-one] | 643 | > 10000 |  | 
CCC(F)(F)CN1CCC(n2c(=O)n(Cc3ccc(-c4nnc(C(F)F)o4)cn3)c3cc(Cl)ccc32)CC1 [Compound 233, 5-chloro-1-(1-(2,2-difluorobutyl)piperidine-4-yl)-3-((5-(5-(difluoromethyl)-1,3,4-oxadiazole-2-yl)pyridine-2-yl)methyl)-1,3-dihydro-2H-benzo[d]imidazole-2-one] |  |  | 107 | > 10000
CC(F)(F)CN1CCC(n2c(=O)n(Cc3ccc(-c4nnc(C(F)F)o4)cn3)c3cc(Cl)ccc32)CC1 [Compound 234, 5-chloro-3-((5-(5-(difluoromethyl)-1,3,4-oxadiazole-2-yl)pyridine-2-yl)methyl)-1-(1-(2,2-difluoropropyl)piperidine-4-yl)-1,3-dihydro-2H-benzo[d]imidazole-2-one] |  |  | 54 | > 10000
O=c1n(Cc2ccc(-c3nnc(C(F)F)o3)cn2)c2cc(Cl)ccc2n1C1CCN(CC(F)(F)C(F)F)CC1 [Compound 235, 5-chloro-3-((5-(5-(difluoromethyl)-1,3,4-oxadiazole-2-yl)pyridine-2-yl)methyl)-1-(1-(2,2,3,3-tetrafluoropropyl)piperidine-4-yl)-1,3-dihydro-2H-benzo[d]imidazole-2-one] |  |  | 103 | > 10000
O=c1n(Cc2ccc(-c3nnc(C(F)F)o3)cn2)c2cc(Cl)ccc2n1C1CCN(CC(F)(F)F)CC1 [Compound 236, 5-chloro-3-((5-(5-(difluoromethyl)-1,3,4-oxadiazole-2-yl)pyridine-2-yl)methyl)-1-(1-(2,2,2-trifluoroethyl)piperidine-4-yl)-1,3-dihydro-2H-benzo[d]imidazole-2-one] |  |  | 68 | > 10000
CC(C)(C)OC(=O)n1ccc2cc(-c3ccc4c(c3)sc(=O)n4Cc3ccc(-c4nnc(C(F)F)o4)cn3)ccc21 [Compound 237, tert-butyl 5-(3-((5-(5-(difluoromethyl)-1,3,4-oxadiazole-2-yl)pyridine-2-yl)methyl)-2-oxo-2,3-dihydrobenzo[d]thiazole-6-yl)-1H-indole-1-carboxylate] |  |  | 1140 | > 10000
CC(C)(C)OC(=O)N1CC=C(c2ccc3c(c2)sc(=O)n3Cc2ccc(-c3nnc(C(F)F)o3)cn2)CC1 [Compound 238, tert-butyl 4-(3-((5-(5-(difluoromethyl)-1,3,4-oxadiazole-2-yl)pyridine-2-yl)methyl)-2-oxo-2,3-dihydrobenzo[d]thiazole-6-yl)-3,6-dihydropyridine-1(2H)-carboxylate] |  |  | 203 | > 10000
O=c1n(Cc2ccc(-c3nnc(C(F)F)o3)cn2)c2cc(F)c(-c3cccc4[nH]ccc34)cc2n1C1CCN(CC(F)(F)F)CC1 [Compound 239, 1-((5-(5-(difluoromethyl)-1,3,4-oxadiazole-2-yl)pyridine-2-yl)methyl)-6-fluoro-5-(1H-indole-4-yl)-3-(1-(2,2,2-trifluoroethyl)piperidine-4-yl)-1,3-dihydro-2H-benzo[d]imidazole-2-one] |  |  | 51 | > 10000
O=c1n(Cc2ccc(-c3nnc(C(F)F)o3)cn2)c2cc(F)c(-c3cccnc3)cc2n1C1CCN(CC(F)(F)F)CC1 [Compound 240, 1-((5-(5-(difluoromethyl)-1,3,4-oxadiazole-2-yl)pyridine-2-yl)methyl)-6-fluoro-5-(pyridine-3-yl)-3-(1-(2,2,2-trifluoroethyl)piperidine-4-yl)-1,3-dihydro-2H-benzo[d]imidazole-2-one] |  |  | 27 | > 10000
O=c1n(Cc2ccc(-c3nnc(C(F)F)o3)cn2)c2cc(F)c(-c3cccc4[nH]ccc34)cc2n1C1CCN(CC(F)(F)C(F)F)CC1 [Compound 241, 1-((5-(5-(difluoromethyl)-1,3,4-oxadiazole-2-yl)pyridine-2-yl)methyl)-6-fluoro-5-(1H-indole-4-yl)-3-(1-(2,2,3,3-tetrafluoropropyl)piperidine-4-yl)-1,3-dihydro-2H-benzo[d]imidazole-2-one] |  |  | 94 | > 10000
O=c1n(Cc2ccc(-c3nnc(C(F)F)o3)cn2)c2cc(F)c(-c3cccnc3)cc2n1C1CCN(CC(F)(F)C(F)F)CC1 [Compound 242, 1-((5-(5-(difluoromethyl)-1,3,4-oxadiazole-2-yl)pyridine-2-yl)methyl)-6-fluoro-5-(pyridine-3-yl)-3-(1-(2,2,3,3-tetrafluoropropyl)piperidine-4-yl)-1,3-dihydro-2H-benzo[d]imidazole-2-one] |  |  | 46 | > 10000
O=C(CO)N1CCC(n2c(=O)n(Cc3ccc(-c4nnc(C(F)F)o4)cn3)c3cc(Cl)ccc32)CC1 [Compound 243, 5-chloro-3-((5-(5-(difluoromethyl)-1,3,4-oxadiazole-2-yl)pyridine-2-yl)methyl)-1-(1-(2-hydroxyacetyl)piperidine-4-yl)-1,3-dihydro-2H-benzo[d]imidazole-2-one] |  |  | 17 | > 10000
COC(=O)c1cc2ccc(-c3ccc4c(c3)n(C)c(=O)n4Cc3ccc(-c4nnc(C(F)F)o4)cn3)cc2[nH]1 [Compound 244, methyl 6-(1-((5-(5-(difluoromethyl)-1,3,4-oxadiazole-2-yl)pyridine-2-yl)methyl)-3-methyl-2-oxo-2,3-dihydro-1H-benzo[d]imidazole-5-yl)-1H-indole-2-carboxylate] |  |  | 74 | > 10000
O=c1oc2ccccc2n1Cc1ccc(-c2nnc(C(F)F)o2)cc1F [Compound 245, 3-(4-(5-(difluoromethyl)-1,3,4-oxadiazole-2-yl)-2-fluorobenzyl)benzo[d]oxazole-2(3H)-one] |  |  | 684 | > 10000
O=c1oc2ccccc2n1Cc1ccc(-c2nnc(C(F)F)o2)cn1 [Compound 246, 3-((5-(5-(difluoromethyl)-1,3,4-oxadiazole-2-yl)pyridine-2-yl)methyl)benzo[d]oxazole-2(3H)-one] |  |  | 23 | > 10000
Cn1c(=O)n(Cc2ccc(-c3nnc(C(F)F)o3)cn2)c2ccc(-c3cn[nH]c3)cc21 [Compound 247, 1-((5-(5-(difluoromethyl)-1,3,4-oxadiazole-2-yl)pyridine-2-yl)methyl)-3-methyl-5-(1H-pyrazole-4-yl)-1,3-dihydro-2H-benzo[d]imidazole-2-one] |  |  | 9 | > 10000
CN1CCC(n2c(=O)n(Cc3ccc(-c4nnc(C(F)F)o4)cn3)c3cc(F)c(-c4cn[nH]c4)cc32)CC1 [Compound 248, 1-((5-(5-(difluoromethyl)-1,3,4-oxadiazole-2-yl)pyridine-2-yl)methyl)-6-fluoro-3-(1-methylpiperidine-4-yl)-5-(1H-pyrazole-4-yl)-1,3-dihydro-2H-benzo[d]imidazole-2-one] |  |  | 6 | > 10000
CN1CCC(n2c(=O)n(Cc3ccc(-c4nnc(C(F)F)o4)cn3)c3cc(F)c(-c4ccnn4C)cc32)CC1 [Compound 249, 1-((5-(5-(difluoromethyl)-1,3,4-oxadiazole-2-yl)pyridine-2-yl)methyl)-6-fluoro-5-(1-methyl-1H-pyrazole-5-yl)-3-(1-methylpiperidine-4-yl)-1,3-dihydro-2H-benzo[d]imidazole-2-one] |  |  | 18 | > 10000

From patent publication US20230092890A1, “1, 3, 4-Oxadiazole derivative compounds as histone deacetylase 6 inhibitor, and the pharmaceutical composition comprising the same” (Chong Kun Dang Pharmaceutical Corp., priority 2019, published 2023)
